This note sets out measurements from patent publication US10626095B2, “Cyanotriazole compounds” (OTSUKA PHARMACEUTICAL CO., LTD., priority 2013, dated 2020).

Assay [1] concerns Zucker Diabetic Fatty (ZDF) rat. In words: Meal load test in type 2 diabetic model rats (postprandial blood glucose). It counts as in vivo. Also noted: unit not given here. To be noted: ZDF rats fasted overnight, blood glucose one hour after meal loading (50 kcal/kg). As for the experimental part:
Effects on Type 2 Diabetes: Meal Load Test
To evaluate whether a cyanotriazol compound improves diabetes or not, especially related to postprandial blood glucose, meal load test was performed using one of type 2 diabetic model rats, the Zucker Diabetic Fatty (ZDF) rat (Charles river, Japan). About 24 animals fasted overnight (17 h) were taken blood samples from the tail veins, and measured blood glucose levels (Pre BG) and body weights (BW). Proper animals were selected and divided into […] (n=6) based on the Pre BG and BW using SAS Statistical Analysis System (SAS institute Japan Ltd. Release 9.1). The compounds to be tested (10 or 30 mg/kg body weight in 5% Arabia gum) or Arabia gum solution only (vehicle group) were orally administrated via gavage two hours prior to or just before meal loading (50 kcal/kg body weight). The meal suspension was prepared by mixing purified AIN-93G (Norsan Corp, Yokohama, Japan) and distilled water (2:3, w/v). One-hour after meal loading, blood glucose (BG1h) of each animal was measured. Effectiveness of each compound was shown by ? BG1h (BG1h difference between compound group and vehicle group). Although a set of 24 animals was used several times (from 13 weeks to 21 weeks of age), at least a one-week interval was placed from one to another test.

Assay [2] deals with NaCT-CHO (CHO cells stably expressing human NaCT). The assay can be described thus: Assay of the citric acid cycle activation ([1,5-14C]-citric acid, diffusion of [14C]-CO2). It counts as cell-based. The following applies: 1 hour incubation at 37° C. with [1,5-14C]-citric acid. The essentials: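 NaCT-CHO cells (pME-CHO empty-vector cells for non-specific counts) were incubated 1 h at 37 °C in Na+-containing HEPES-Tris pH 7.4 with compound plus an equal volume of 0.4 mM [1,5-14C]-citric acid solution. Residual cell radioactivity was counted, [14C]-CO2 diffusion was taken as (Total−R)/(Total−NS)×100%, and EC50 was derived by regression.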

For `N#Cc1[nH]nnc1-c1ccc(-c2nccc(C(F)(F)F)n2)cc1` [Example 70, 5-[4-(4-trifluoromethyl-pyrimidin-2-yl)-phenyl]-3H-[1,2,3]triazole-4-carbonitrile], the “BG1h (BG1h difference between compound group and vehicle group)” value in assay [1] (oral 10 mg/kg in 5% Arabia gum) is −137.2. Further, in assay [2], a half-maximal response (EC50) required 510 nM.
Taken in the same sequence, the figures for `N#Cc1[nH]nnc1-c1cc(Cl)cc(-c2ccc(OC(F)(F)F)c(F)c2)c1` [Example 276, 5-(5-chloro-3′-fluoro-4′-trifluoromethoxy-biphenyl-3-yl)-3H-[1,2,3]triazole-4-carbonitrile] were −71.4 and 850 nM.
On to `N#Cc1[nH]nnc1-c1cccc(/C=C/c2ccc(F)cc2F)c1` [Example 646, 5-{3-[(E)-2-(2,4-difluoro-phenyl)-vinyl]-phenyl}-3H-[1,2,3]triazole-4-carbonitrile], for which the “BG1h (BG1h difference between compound group and vehicle group)” value in assay [1] (oral 10 mg/kg in 5% Arabia gum) is −89.3. The EC50 (commonly the concentration at which the effect is half-maximal) in assay [2] was 620 nM.
With `N#Cc1[nH]nnc1-c1cccc(/C=C/c2nccc(C(F)(F)F)n2)c1` [Example 52, 5-{3-[(E)-2-(4-trifluoromethyl-pyrimidin-2-yl)-vinyl]-phenyl}-3H-[1,2,3]triazole-4-carbonitrile], the “BG1h (BG1h difference between compound group and vehicle group)” value in assay [1] (oral 10 mg/kg in 5% Arabia gum) is listed as −120.4. This molecule also showed an EC50 in assay [2] of 580 nM.
For the molecule `N#Cc1[nH]nnc1-c1cccc(/C=C/c2ccc3c(c2)OC(F)(F)O3)c1` [Example 1017, 5-{3-[(E)-2-(2,2-difluoro-benzo[1,3]dioxol-5-yl)-vinyl]-phenyl}-3H-[1,2,3]triazole-4-carbonitrile], the “BG1h (BG1h difference between compound group and vehicle group)” value in assay [1] (oral 10 mg/kg in 5% Arabia gum) was −124.6. For the same molecule, a half-maximal response in assay [2] (EC50) required 1000 nM.
Taken in the same sequence, the figures for `Cc1cc(-c2ccc(C(F)(F)F)nc2)cc(-c2nn[nH]c2C#N)c1` [Example 11, 5-[3-methyl-5-(6-trifluoromethyl-pyridin-3-yl)-phenyl]-3H-[1,2,3]triazole-4-carbonitrile] were −93.2 and 670 nM.
Take `N#Cc1[nH]nnc1-c1cccc(/C=C/c2cccc(C(F)(F)F)n2)c1` [Example 1018, 5-{3-[(E)-2-(6-trifluoromethyl-pyridin-2-yl)-vinyl]-phenyl}-3H-[1,2,3]triazole-4-carbonitrile]: the “BG1h (BG1h difference between compound group and vehicle group)” value in assay [1] (oral 10 mg/kg in 5% Arabia gum) is recorded as −59.2. The molecule further came in with an EC50 in assay [2] of 1170 nM.
As to `N#Cc1[nH]nnc1-c1cc2ccc(-c3ccc(F)cc3)cc2o1` [Example 147, 5-[6-(4-fluoro-phenyl)-benzofuran-2-yl]-3H-[1,2,3]triazole-4-carbonitrile], in assay [1] (oral 10 mg/kg in 5% Arabia gum), the “BG1h (BG1h difference between compound group and vehicle group)” value is reported as −80.5. In assay [2], this molecule came in with an EC50 of 1660 nM.
For `N#Cc1[nH]nnc1-c1cccc(-c2ccc3c(c2)OC(F)(F)O3)c1` [Example 931, 5-[3-(2,2-difluoro-benzo[1,3]dioxol-5-yl)-phenyl]-3H-[1,2,3]triazole-4-carbonitrile] the same measures were −76.4 and 690 nM.
For `N#Cc1[nH]nnc1-c1cc(Cl)cc(/C=C/c2cc(C(F)(F)F)cc(C(F)(F)F)c2)c1` [Example 610, 5-{3-[(E)-2-(3,5-bis-trifluoromethyl-phenyl)-vinyl]-5-chloro-phenyl}-3H-[1,2,3]triazole-4-carbonitrile] the same measures were −86.8 and 1740 nM.
On to `CC(OC(=O)OCC(C)(C)C(=O)O)n1nc(C#N)c(-c2csc(-c3ccc(Cl)cc3)n2)n1` (stereo not shown) [Example 1814], for which the “BG1h (BG1h difference between compound group and vehicle group)” value in assay [1] (oral 30 mg/kg in 5% Arabia gum) is −108.7.
For `CC(OC(=O)OCC(C)(C)C(=O)O)n1nc(C#N)c(-c2cc(Cl)cc(-c3nccc(C(F)(F)F)n3)c2)n1` (stereo not shown) [Example 1810, 3-(1-{4-[3-chloro-5-(4-trifluoromethyl-pyrimidin-2-yl)-phenyl]-5-cyano-2H-[1,2,3]triazol-2-yl}-ethoxycarbonyloxy)-2,2-dimethyl-propionic acid], the “BG1h (BG1h difference between compound group and vehicle group)” value in assay [1] (oral 30 mg/kg in 5% Arabia gum) is on record as −53.2.
Same read-out and setting: as for `CC(=O)OCn1nc(C#N)c(-c2cc(Cl)cc(/C=C/c3cccc(C(F)(F)F)c3)c2)n1` [Example 1830, acetic acid 4-{3-chloro-5-[(E)-2-(3-trifluoromethylphenyl)vinyl]phenyl}-5-cyano-2H-[1,2,3]triazol-2-ylmethyl ester], the figure is −52.5; as for `CC(OC(=O)OCC(C)(C)C(=O)O)n1nc(C#N)c(-c2cc(Cl)cc(-c3ccc4c(c3)OC(F)(F)O4)c2)n1` (stereo not shown) [Example 1808, 3-(1-{4-[3-chloro-5-(2,2-difluoro-benzo[1,3]dioxol-5-yl)-phenyl]-5-cyano-2H-[1,2,3]triazol-2-yl}-ethoxycarbonyloxy)-2,2-dimethyl-propionic acid], −76.0; as for `CC(OC(=O)OCC(C)(C)C(=O)O)n1nc(C#N)c(-c2csc(-c3cccc(OC(F)(F)F)c3)n2)n1` (stereo not shown) [Example 1818, 3-(1-{4-cyano-5-[2-(3-trifluoromethoxy-phenyl)-thiazol-4-yl]-2H-[1,2,3]triazol-2-yl}-ethoxycarbonyloxy)-2,2-dimethyl-propionic acid], −33.0.
As for `CCCC(=O)OCn1nc(C#N)c(-c2cc(Cl)cc(/C=C/c3cccc(C(F)(F)F)c3)c2)n1` [Example 1831], the “BG1h (BG1h difference between compound group and vehicle group)” value in assay [1] (oral 30 mg/kg in 5% Arabia gum) was −61.0.
Still for that read-out and setting: as for `CC(OC(=O)OCC(C)(C)C(=O)O)n1nc(C#N)c(-c2cccc(/C=C/c3cc(C(F)(F)F)ccn3)c2)n1` (stereo not shown) [Example 1815, 3-[1-(4-cyano-5-{3-[(E)-2-(4-trifluoromethyl-pyridin-2-yl)-vinyl]-phenyl}-2H-[1,2,3]triazol-2-yl)-ethoxycarbonyloxy]-2,2-dimethyl-propionic acid], the figure is −63.2; as for `Cc1cc(-c2ccc(C(F)(F)F)nc2)cc(-c2nn(C(C)OC(=O)OCC(C)(C)C(=O)O)nc2C#N)c1` (stereo not shown) [Example 1825, 3-(1-{4-cyano-5-[3-methyl-5-(6-trifluoromethyl-pyridin-3-yl)-phenyl]-2H-[1,2,3]triazol-2-yl}-ethoxycarbonyloxy)-2,2-dimethyl-propionic acid], −48.3.
On the same count and under the same terms, for `CC(OC(=O)OCC(C)(C)C(=O)O)n1nc(C#N)c(-c2cccc(/C=C/c3nccc(C(F)(F)F)n3)c2)n1` (stereo not shown) [Example 1816, 3-[1-(4-cyano-5-{3-[(E)-2-(4-trifluoromethyl-pyrimidin-2-yl)-vinyl]-phenyl}-2H-[1,2,3]triazol-2-yl)-ethoxycarbonyloxy]-2,2-dimethyl-propionic acid] the value was −45.5.
As to `CC(OC(=O)OCC(C)(C)C(=O)O)n1nc(C#N)c(-c2cccc(OCc3cc(C(F)(F)F)ccc3C(F)(F)F)c2)n1` (stereo not shown) [Example 1806, 3-(1-{4-[3-(2,5-bis-trifluoromethyl-benzyloxy)-phenyl]-5-cyano-2H-[1,2,3]triazol-2-yl}-ethoxycarbonyloxy)-2,2-dimethyl-propionic acid], the “BG1h (BG1h difference between compound group and vehicle group)” value in assay [1] (oral 30 mg/kg in 5% Arabia gum) was −86.3.
As for `CC(OC(=O)OCC(C)(C)C(=O)O)n1nc(C#N)c(-c2cc(/C=C/c3cccc(C(F)(F)F)n3)cc(C(F)(F)F)c2)n1` (stereo not shown) [Example 1813, 3-[1-(4-cyano-5-{3-trifluoromethyl-5-[(E)-2-(6-trifluoromethyl-pyridin-2-yl)-vinyl]-phenyl}-2H-[1,2,3]triazol-2-yl)-ethoxycarbonyloxy]-2,2-dimethyl-propionic acid], in assay [1] (oral 30 mg/kg in 5% Arabia gum), the “BG1h (BG1h difference between compound group and vehicle group)” value was −73.0.
Still for that read-out and setting: as for `CC(OC(=O)OCC(C)(C)C(=O)O)n1nc(C#N)c(-c2cc(Cl)cc(/C=C/c3cccc(C(F)(F)F)c3)c2)n1` (stereo not shown) [Example 1811, 3-[1-(4-{3-chloro-5-[(E)-2-(3-trifluoromethyl-phenyl)-vinyl]-phenyl}-5-cyano-2H-[1,2,3]triazol-2-yl)-ethoxycarbonyloxy]-2,2-dimethyl-propionic acid], the figure is −84.5; as for `CC(OC(=O)OCC(C)(C)C(=O)O)n1nc(C#N)c(-c2nc(-c3cccc(C(F)(F)F)c3)sc2Cl)n1` (stereo not shown) [Example 1817, 3-(1-{4-[5-chloro-2-(3-trifluoromethyl-phenyl)-thiazol-4-yl]-5-cyano-2H-[1,2,3]triazol-2-yl}-ethoxycarbonyloxy)-2,2-dimethyl-propionic acid], −106.5.
`Cc1sc(-c2ccc(F)c(Cl)c2)nc1-c1nn(C(C)OC(=O)OCC(C)(C)C(=O)O)nc1C#N` (stereo not shown) [Example 1823, 3-(1-{4-[2-(3-chloro-4-fluoro-phenyl)-5-methyl-thiazol-4-yl]-5-cyano-2H-[1,2,3]triazol-2-yl}-ethoxycarbonyloxy)-2,2-dimethyl-propionic acid]: the “BG1h (BG1h difference between compound group and vehicle group)” value in assay [1] (oral 30 mg/kg in 5% Arabia gum) is given as −63.3.
